Data as given in EP0640690A1, “Monoclonal antibodies specific for 5-dihydrotestosterone” (ELI LILLY AND COMPANY, priority 1993, dated 1995).

What was measured:
[1] = system: monoclonal antibody MoAb 276-1 (anti-5-dihydrotestosterone, hybridoma ATCC HB 11410); experiment: competitive ELISA: competition with bound avidin/5-DHT complex for the antibody; format: binding, mouse; conditions: for IC50: concentration inhibiting 50% of antibody binding to immobilized avidin/5-DHT, read-out: IC₅₀
Experimental: The usual method of quantifying specificity of an antibody is by way of a competitive ELISA assay, a technique which is well known to one of skill in the art. In such an assay the reactivity is determined by binding an avidin/5-DHT complex to a support, such as a well in a microtiter plate, as described infra. A limited amount of anti-5-DHT antibody (such as MoAb 276-1) is then added simultaneously with differing concentrations of 5-dihydrotestosterone, which competes with the bound 5-DHT for the antibody. Unbound antibody is then removed from the wells. The concentration of 5-dihydrotestosterone which inhibits 50% of the binding of the antibody is designated as the IC₅₀. The experiment is run in parallel using testosterone in place of the 5-dihydrotestosterone. The IC₅₀ of the testosterone is then compared with the IC₅₀ of the 5-dihydrotestosterone to give a relative binding affinity.
The most preferred antibody of this invention, MoAb 276-1, has an IC₅₀ of 537 nM for 5-dihydrotestosterone, while an IC₅₀ of 4568 nM was obtained for testosterone. This antibody, therefore, is 8.5 times more specific for 5-dihydrotestosterone than for testosterone. The hybridoma producing the monoclonal antibody MoAb 276-1 is available from the American Type Culture […] (ATCC) in Rockville, Maryland, 20852 under accession number ATCC HB 11410.

[2] = system: 5-α-reductase enzyme from a female rat liver preparation; experiment: 5-α-reductase inhibitor assay: 5-DHT formed from testosterone measured by MoAb 276-1 ELISA; format: biochemical; conditions: concentration inhibiting 100% of activity; testosterone substrate, NADPH, pH 6.5, 37°C, 20 minutes; one experiment
Experimental: This reaction mixture was incubated at 37°C for 20 minutes. The enzyme was then inactivated by incubating the reaction mixture at 80°C for 10 minutes. […] In additon, serial dilutions of the reaction mixture were made and 100 µl of each of these dilutions was added to separate wells. To each well was added 100 µl (0.35 µg) of MoAb 276-1. This plate was then incubated at 37°C for 2 hours. After this incubation period, the plate was washed four times with phosphate buffered saline (PBS). After the washing, 200 µl of anti-mouse antibody/alkaline phosphatase conjugate was added to each well. This was then incubated at 37°C for 1 hour. After the incubation each well was washed four times with PBS. To each well was then added 200 µl of p-nitrophenylphosphate. This reaction was then incubated for one hour at 37°C. Spectrophotometric measurement of each well was then performed, reading at 410 nm. This measurement provided the baseline activity of 5-α-reductase activity without an inhibitor. […] This compound was prepared as described in U.S. Patent 5,239,075, issued August 24, 1993, which is herein incorporated by reference.

C[C@]12CC[C@H]3[C@@H](CCC4=CC(=O)CC[C@@]43C)[C@@H]1CC[C@@H]2O [testosterone]
IC50 [1]: 4570 nM

C[C@]12CCC(=O)C[C@@H]1CC[C@@H]1[C@@H]2CC[C@]2(C)[C@@H](O)CC[C@@H]12 [5-dihydrotestosterone, 17β-hydroxy-5α-androstan-3-one]
IC50 [1]: 537 nM
times more specific for 5-dihydrotestosterone than for testosterone ([1]; ratio of IC₅₀ of testosterone to IC₅₀ of 5-dihydrotestosterone): 8.5 times

Cc1ccc2c(c1)CC[C@@H]1[C@@H]2CCC(=O)N1C (racemic) [trans-dl-4,8-dimethyl-1,2,3,4,4a,5,6,10b-octahydrobenzo-[f]quinolin-3-one]
IC₁₀₀ [2]: 0.3 µM
